In US9845295B2, “Triphenylethylene compounds and uses thereof” (Purdue Research Foundation, priority 2015, dated 2017):

Key:
recombinant human ER-α = target: T1, recombinant human ER-α (Homo sapiens, UniProt P03372); test: Binding affinity for recombinant human ER-α (fluorescence polarization, ES2 displacement); conditions: for IC50: read-out: binding affinities for ER-α (IC50)
T1 construct: purchased Invitrogen (Carlsbad, Calif.)
T1 sequence (P03372 1-595): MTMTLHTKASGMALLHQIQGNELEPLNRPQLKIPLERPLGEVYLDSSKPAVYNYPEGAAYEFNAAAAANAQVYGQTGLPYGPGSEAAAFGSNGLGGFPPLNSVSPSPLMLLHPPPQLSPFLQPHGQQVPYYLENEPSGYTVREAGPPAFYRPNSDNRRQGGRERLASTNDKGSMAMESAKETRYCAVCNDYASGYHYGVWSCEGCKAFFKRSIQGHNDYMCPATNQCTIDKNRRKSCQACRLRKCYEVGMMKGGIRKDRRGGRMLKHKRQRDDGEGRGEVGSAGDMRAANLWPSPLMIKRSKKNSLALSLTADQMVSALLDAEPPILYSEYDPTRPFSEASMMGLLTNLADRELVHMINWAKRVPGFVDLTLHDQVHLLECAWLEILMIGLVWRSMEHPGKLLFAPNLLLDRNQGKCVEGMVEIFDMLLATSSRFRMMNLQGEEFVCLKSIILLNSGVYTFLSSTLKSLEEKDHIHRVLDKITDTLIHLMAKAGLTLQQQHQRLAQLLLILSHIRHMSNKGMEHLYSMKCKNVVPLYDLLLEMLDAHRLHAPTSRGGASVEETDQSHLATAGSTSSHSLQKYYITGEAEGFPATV
Protocol: (§1) Binding Affinities for Recombinant Human ER-α and ER-β.
(§2) The binding affinities of ER-α and ER-β were determined by measuring the change of polarization value when the fluorescent estrogen ligand, ES2, was displaced by the tested compounds. Experimental procedures were consistent with the protocol provided by Invitrogen. The fluorescent estrogen ligand, ES2, was provided in methanol/water (4:1, v/v) with the concentration of 1800 nM. Recombinant human ER-α and ER-β were provided in buffer (50 mM bis-tris propane, 400 mM KCl, 2 mM DTT, 1 mM EDTA and 10% glycerol), with the concentration of 734 nM and 3800 nM, respectively. All tested samples were dissolved in either methanol or DMSO. The sample solutions (1 pt) were mixed well with 49 pt of ES2 screening buffer (100 mM potassium phosphate, 100 μg/mL BGG and 0.02% NaN3). The ER-α/ES2 complex was prepared with the fluorescent estrogen ligand ES2, human recombinant ER and ES2 screening buffer with the concentrations of 9 nM ES2 and 30 nM ER-α. The ER-β/ES2 complex was prepared with the fluorescent estrogen ligand ES2, human recombinant ER-β and ES2 screening buffer with the concentrations of 9 nM ES2 and 20 nM ER-ft Reactions were initiated by adding ER/ES2 complex (50 μL) to bring the incubation volume to 100 μL and incubated for 2 h avoiding light. […] Excitation-emission wavelengths for fluorescence polarization were […]. The polarization values in the presence of the test competitors were compared with those in control, in which the competitor was replaced with vehicle. The extent of competition was expressed as the percentage of remaining polarization compared to the control.

[1] = target: T2, recombinant human aromatase (CYP19) (Homo sapiens, UniProt P11511); test: Inhibition of recombinant human aromatase (CYP19) by microsomal incubations (MFC fluorometric substrate); format: biochemical; conditions: for aromatase percent inhibition: at 50000 nM compound, 50 µM; for times more potent than 7 against aromatase: ratio of IC50 values vs compound 7
T2 construct: purchased BD Biosciences (San Jose, Calif.)
T2 sequence (P11511 1-503): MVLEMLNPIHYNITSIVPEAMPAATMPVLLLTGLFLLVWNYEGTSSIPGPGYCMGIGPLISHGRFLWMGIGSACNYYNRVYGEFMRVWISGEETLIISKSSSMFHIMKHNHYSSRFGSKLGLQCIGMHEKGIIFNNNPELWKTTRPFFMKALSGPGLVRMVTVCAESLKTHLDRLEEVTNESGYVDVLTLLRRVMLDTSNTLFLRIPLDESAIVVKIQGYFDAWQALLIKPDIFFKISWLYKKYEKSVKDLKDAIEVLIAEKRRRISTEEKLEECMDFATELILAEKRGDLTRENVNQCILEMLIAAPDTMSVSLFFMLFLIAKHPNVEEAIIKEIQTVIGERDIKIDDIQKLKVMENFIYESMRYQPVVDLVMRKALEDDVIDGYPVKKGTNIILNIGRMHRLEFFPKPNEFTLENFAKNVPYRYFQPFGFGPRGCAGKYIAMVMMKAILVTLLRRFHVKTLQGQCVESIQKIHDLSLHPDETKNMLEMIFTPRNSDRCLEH
Protocol: Inhibition of Recombinant Human Aromatase (CYP19) by Microsomal Incubations.
All tested samples were dissolved in either methanol or DMSO. […] All the reactions were stopped by adding 0.1 M tris base dissolved in acetonitrile (75 μL). […] The extent of enzyme inhibition was expressed as the percentage of remaining enzyme activity compared to the control.

recombinant human ER-β = target: T3, recombinant human ER-β (Homo sapiens, UniProt Q92731); test: Binding affinity for recombinant human ER-β (fluorescence polarization, ES2 displacement); conditions: for inhibition at 100 µM: 2 h, at 100000 nM compound, read-out: ER-β percent competition; for IC50: read-out: binding affinities for ER-β (IC50)
T3 construct: purchased Invitrogen (Carlsbad, Calif.)
Protocol: as §1, §2

[2] = Table 1, mean of at least three experiments
[3] = Table 1, determined only for compounds with >90% competition
[4] = Table 2, determined for compounds with inhibition higher than 90%

T3 sequence (Q92731 whole entry): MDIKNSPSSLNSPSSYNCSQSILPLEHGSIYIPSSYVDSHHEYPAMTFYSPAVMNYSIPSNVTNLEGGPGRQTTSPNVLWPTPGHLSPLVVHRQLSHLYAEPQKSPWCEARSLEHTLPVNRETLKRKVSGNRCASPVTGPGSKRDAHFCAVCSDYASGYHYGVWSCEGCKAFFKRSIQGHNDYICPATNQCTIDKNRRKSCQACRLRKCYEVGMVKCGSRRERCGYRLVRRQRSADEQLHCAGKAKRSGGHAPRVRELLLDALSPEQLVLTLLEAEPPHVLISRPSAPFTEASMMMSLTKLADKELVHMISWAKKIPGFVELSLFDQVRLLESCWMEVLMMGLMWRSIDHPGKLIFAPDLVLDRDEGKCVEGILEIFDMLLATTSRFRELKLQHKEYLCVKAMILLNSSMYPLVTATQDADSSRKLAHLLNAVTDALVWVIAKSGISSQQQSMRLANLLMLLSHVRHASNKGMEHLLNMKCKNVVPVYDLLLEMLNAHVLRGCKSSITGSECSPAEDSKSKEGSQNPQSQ

SMILES: Oc1ccc(C(=C(Cn2cncn2)c2ccccc2)c2ccc(O)cc2)cc1 [Compound 13, 4,4′-(2-Phenyl-3-(1H-1,2,4-triazol-1-yl)prop-1-ene-1,1-diyl)diphenol]
- ER-α percent competition (recombinant human ER-α; Table 1, at 100 μM compound): 12% competition
- IC50 [1, 2]: 137 nM
- melting point: 143 to 145 °C

SMILES: Oc1ccc(C(Cn2cnnc2)=C(c2ccc(O)cc2)c2ccc(O)cc2)cc1 [Compound 20a, 4,4′,4″-(3-(4H-1,2,4-Triazol-4-yl)prop-1-ene-1,1,2-triyl)triphenol]
- EC50 (recombinant human ER-α; [3]): 943 ± 285 nM
- IC50 [1, 2]: 12500 ± 400 nM
- EC50 (recombinant human ER-β; [3]): 1080 ± 100 nM

SMILES: Nc1ccc(C(Cn2ccnc2)=C(c2ccc(O)cc2)c2ccc(O)cc2)cc1 [Compound 26, 4,4′-(2-(4-Aminophenyl)-3-(1H-imidazol-1-yl)prop-1-ene-1,1-diyl)diphenol]
- EC50 (recombinant human ER-α; [3]): 1830 ± 910 nM
- IC50 [1, 2]: 5.24 ± 0.41 nM
- EC50 (recombinant human ER-β; [3]): 296 ± 154 nM

SMILES: CCC(=C(c1ccc(O)cc1)c1ccc(O)cc1)c1ccc([N+](=O)[O-])cc1 [Compound 37b, 4-(1-(4-Hydroxyphenyl)-2-(4-nitrophenyl)but-1-enyl)phenol]
- ER-α percent competition (recombinant human ER-α; Table 2, at 100000 nM compound): 40% competition
- aromatase percent inhibition ([1]; Table 2): 78 % inhibition
- inhibition at 100 µM (recombinant human ER-β; Table 2): 66%

SMILES: CCC(=C(c1ccc(N)cc1)c1ccc(N)cc1)c1ccc(N)cc1 [Compound 38d, 4-(1,2-Bis(4-aminophenyl)but-1-enyl)benzenamine]
- ER-α percent competition (recombinant human ER-α; Table 2, at 100000 nM compound): 25% competition
- IC50 [1, 4]: 13.4 ± 3 nM
- inhibition at 100 µM (recombinant human ER-β; Table 2): 76%

SMILES: N#CCC(=C(c1ccc(O)cc1)c1ccc(O)cc1)c1ccccc1 [Compound 11, 4,4-Bis(4-hydroxyphenyl)-3-phenylbut-3-enenitrile]
- ER-α percent competition (recombinant human ER-α; Table 1, at 100 μM compound): 56% competition
- IC50 [1, 2]: 12800 nM
- melting point: 198 to 200 °C

SMILES: Nc1ccc(C(Cn2cncn2)=C(c2ccc(O)cc2)c2ccc(O)cc2)cc1 [Compound 27, 4,4′-(2-(4-Aminophenyl)-3-(1H-1,2,4-triazol-1-yl)prop-1-ene-1,1-diyl)diphenol]
- ER-α percent competition (recombinant human ER-α; Table 1, at 100 μM compound): 0% competition
- IC50 [1, 2]: 104 ± 9 nM

SMILES: Oc1ccc(C(=C(Cn2ccnc2)c2ccc(O)c(F)c2)c2ccc(O)cc2)cc1 [Compound 18b, 4,4′-(2-(3-Fluoro-4-hydroxyphenyl)-3-(1H-imidazol-1-yl)prop-1-ene-1,1-diyl)diphenol]
- EC50 (recombinant human ER-α; [3]): 85.2 ± 14.2 nM
- IC50 (recombinant human ER-α): 85.2 to 97.8 nM
- IC50 [1, 2]: 94.4 ± 3.5 nM
- EC50 (recombinant human ER-β; [3]): 56.3 ± 17.8 nM
- IC50 (recombinant human ER-β): 56.3 to 73.6 nM

SMILES: Oc1ccc(C(Cn2ccnc2)=C(c2ccc(O)cc2)c2ccc(O)cc2)cc1 [Compound 18a, 4,4′,4″-(3-(1H-Imidazol-1-yl)prop-1-ene-1,1,2-triyl)triphenol]
- EC50 (recombinant human ER-α; [3]): 97.8 ± 42.3 nM
- IC50 (recombinant human ER-α): 85.2 to 97.8 nM
- IC50 [1, 2]: 60 ± 4.1 nM
- EC50 (recombinant human ER-β; [3]): 73.6 ± 29.9 nM
- IC50 (recombinant human ER-β): 56.3 to 73.6 nM

SMILES: CC(=C(c1ccc(O)cc1)c1ccc(O)cc1)c1ccc([N+](=O)[O-])cc1 [Compound 37a, 4-(1-(4-Hydroxyphenyl)-2-(4-nitrophenyl)prop-1-enyl)phenol]
- ER-α percent competition (recombinant human ER-α; Table 2, at 100000 nM compound): 19% competition
- aromatase percent inhibition ([1]; Table 2): 75 % inhibition
- inhibition at 100 µM (recombinant human ER-β; Table 2): 55%

SMILES: Nc1cccc(C(Cn2ccnc2)=C(c2ccc(O)cc2)c2ccc(O)cc2)c1 [Compound 35, 4,4′-(2-(3-Aminophenyl)-3-(1H-imidazol-1-yl)prop-1-ene-1,1-diyl)diphenol]
- ER-α percent competition (recombinant human ER-α; Table 1, at 100 μM compound): 60% competition
- IC50 [1, 2]: 439 ± 16 nM

SMILES: N#CCC(=C(c1ccc(O)cc1)c1ccc(O)cc1)c1ccc(N)cc1 [Compound 25, 3-(4-Aminophenyl)-4,4-bis(4-hydroxyphenyl)but-3-enenitrile]
- ER-α percent competition (recombinant human ER-α; Table 1, at 100 μM compound): 0% competition
- IC50 [1, 2]: 36.3 ± 0.8 nM
- melting point: 235 to 238 °C

SMILES: Nc1ccc(C(Cn2cnnc2)=C(c2ccc(O)cc2)c2ccc(O)cc2)cc1 [Compound 28, 4,4′-(2-(4-Aminophenyl)-3-(4H-1,2,4-triazol-4-yl)prop-1-ene-1,1-diyl)diphenol]
- ER-α percent competition (recombinant human ER-α; Table 1, at 100 μM compound): 13% competition
- IC50 [1, 2]: 17.7 ± 1.2 nM

SMILES: Oc1ccc(C(=C(Cn2cncn2)c2ccc(O)c(F)c2)c2ccc(O)cc2)cc1 [Compound 19b, 4,4′-(2-(3-Fluoro-4-hydroxyphenyl)-3-(1H-1,2,4-triazol-1-yl)prop-1-ene-1,1-diyl)diphenol]
- ER-α percent competition (recombinant human ER-α; Table 1, at 100 μM compound): 2% competition
- IC50 [1, 2]: 2980 ± 50 nM

SMILES: CC(=C(c1ccc(N)cc1)c1ccc(N)cc1)c1ccc([N+](=O)[O-])cc1 [Compound 37c, 4-(1-(4-Aminophenyl)-2-(4-nitrophenyl)prop-1-enyl)benzenamine]
- EC50 (recombinant human ER-α; Table 2): 213 ± 53.7 nM
- IC50 [1, 4]: 221 nM
- times more potent than 7 against aromatase [1]: about 113 times
- EC50 (recombinant human ER-β; Table 2): 486 ± 240 nM

SMILES: CC(=C(c1ccc(N)cc1)c1ccc(N)cc1)c1ccc(N)cc1 [Compound 38c, 4-(1,2-Bis(4-aminophenyl)prop-1-enyl)benzenamine]
- ER-α percent competition (recombinant human ER-α; Table 2, at 100000 nM compound): 31% competition
- IC50 [1, 4]: 177 ± 20.2 nM
- inhibition at 100 µM (recombinant human ER-β; Table 2): 77%

SMILES: Oc1ccc(C(Cn2cncn2)=C(c2ccc(O)cc2)c2ccc(O)cc2)cc1 [Compound 19a, 4,4′,4″-(3-(1H-1,2,4-Triazol-1-yl)prop-1-ene-1,1,2-triyl)triphenol]
- ER-α percent competition (recombinant human ER-α; Table 1, at 100 μM compound): 45% competition
- IC50 [1, 2]: 3030 ± 150 nM

SMILES: CCC(=C(c1ccc(O)cc1)c1ccc(O)cc1)c1ccc(N)cc1 [Compound 38b, 4-(2-(4-Aminophenyl)-1-(4-hydroxyphenyl)but-1-enyl)phenol]
- EC50 (recombinant human ER-α; Table 2): 1710 ± 630 nM
- IC50 [1, 4]: 8.8 nM
- EC50 (recombinant human ER-β; Table 2): 1260 ± 424 nM

SMILES: CC(=C(c1ccc(O)cc1)c1ccc(O)cc1)c1ccc(N)cc1 [Compound 38a, 4-(2-(4-Aminophenyl)-1-(4-hydroxyphenyl)prop-1-enyl)phenol]
- EC50 (recombinant human ER-α; Table 2): 11000 ± 827 nM
- IC50 [1, 4]: 230 nM
- EC50 (recombinant human ER-β; Table 2): 857 ± 389 nM

SMILES: N#CCC(=C(c1ccc(O)cc1)c1ccc(O)cc1)c1ccc(O)cc1 [Compound 17a, 3,4,4-Tris(4-hydroxyphenyl)but-3-enenitrile]
- ER-α percent competition (recombinant human ER-α; Table 1, at 100 μM compound): 0% competition
- IC50 [1, 2]: 15200 ± 300 nM

SMILES: Oc1ccc(C(=C(Cn2cnnc2)c2ccc(O)c(F)c2)c2ccc(O)cc2)cc1 [Compound 20b, 4,4′-(2-(3-Fluoro-4-hydroxyphenyl)-3-(4H-1,2,4-triazol-4-yl)prop-1-ene-1,1-diyl)diphenol]
- ER-α percent competition (recombinant human ER-α; Table 1, at 100 μM compound): 0% competition
- IC50 [1, 2]: 14200 ± 1100 nM

SMILES: CCC(=C(c1ccc(N)cc1)c1ccc(N)cc1)c1ccc([N+](=O)[O-])cc1 [Compound 37d, 4-(1-(4-Aminophenyl)-2-(4-nitrophenyl)but-1-enyl)benzenamine]
- EC50 (recombinant human ER-α; Table 2): 72.1 ± 42.6 nM
- IC50 [1, 4]: 62.2 ± 7.8 nM
- times more potent than 7 against aromatase [1]: ~400 times
- EC50 (recombinant human ER-β; Table 2): 70.8 ± 5.2 nM

SMILES: Oc1ccc(C(=C(Cn2ccnc2)c2cccc(O)c2)c2ccc(O)cc2)cc1 [Compound 32, 4,4′-(2-(3-Hydroxyphenyl)-3-(1H-imidazol-1-yl)prop-1-ene-1,1-diyl)diphenol]
- ER-α percent competition (recombinant human ER-α; Table 1, at 100 μM compound): 0% competition
- IC50 [1, 2]: 60.4 ± 1.7 nM
